Reference: patent US20110020460A1, “GPR 119 MODULATORS” (Pfizer Inc., priority 2009, published 2011)
Where “and” joins values, the source holds several entries; their conditions need not be identical. Equal entries are not always repeated.

Columns and labels:
human GPR119 [1] = biological target: T1, human GPR119 (Homo sapiens, UniProt Q8TDV5); assay: beta-arrestin functional assay (DiscoverX PathHunter U2OS hGPR119 beta-arrestin cells); type: cell-based; details: for EC50: read-out: Human B-arrestin Functional EC50; for Emax: U2OS, read-out: Intrinsic Activity* (B-arrestin)
T1 construct: host or cells: U2OS
Experimental: GPR119 agonist activity was also determined with a cell-based assay utilizing DiscoverX PathHunter β-arrestin cell assay technology and their U2OS hGPR119 β-arrestin cell line (DiscoverX Cat #93-0356C3). In this assay, agonist activation is determined by measuring agonist-induced interaction of […] with activated GPR119. A small, 42 amino acid enzyme fragment, called ProLink was appended to the C-terminus of GPR119. Arrestin was fused to the larger enzyme fragment, termed EA (Enzyme Acceptor). Activation of GPR119 stimulates binding of arrestin and forces the complementation of the two enzyme fragments, resulting in formation of a functional β-galactosidase enzyme capable of hydrolyzing substrate and generating a chemiluminescent signal.
EC50 determinations were made from an agonist-response curves analyzed with a curve fitting program using a 4-parameter logistic dose response equation.
T1 sequence (P32121 whole entry partner, one chain of several): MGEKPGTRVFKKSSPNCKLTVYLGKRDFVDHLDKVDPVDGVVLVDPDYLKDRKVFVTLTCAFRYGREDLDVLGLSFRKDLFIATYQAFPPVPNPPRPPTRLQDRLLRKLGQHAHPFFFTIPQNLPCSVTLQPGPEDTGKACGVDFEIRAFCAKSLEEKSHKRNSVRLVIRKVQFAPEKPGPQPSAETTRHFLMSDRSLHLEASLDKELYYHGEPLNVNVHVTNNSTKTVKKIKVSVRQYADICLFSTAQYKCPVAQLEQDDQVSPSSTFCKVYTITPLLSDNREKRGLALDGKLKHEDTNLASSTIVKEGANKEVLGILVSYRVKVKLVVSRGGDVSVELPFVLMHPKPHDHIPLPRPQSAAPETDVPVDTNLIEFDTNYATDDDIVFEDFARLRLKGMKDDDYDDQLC

human GPR119 [2] = biological target: T2, human GPR119 (Homo sapiens, UniProt Q8TDV5); assay: GPR119 radioligand binding assay ([3H]-Compound A or [3H]-Compound B, HEK 293FT membranes); details: Ki from IC50 by Cheng-Prusoff; one value per run; read-out: Human Binding Ki
T2 construct: host or cells: HEK293-CRE-beta-lactamase
T2 sequence (Q8TDV5 1-335): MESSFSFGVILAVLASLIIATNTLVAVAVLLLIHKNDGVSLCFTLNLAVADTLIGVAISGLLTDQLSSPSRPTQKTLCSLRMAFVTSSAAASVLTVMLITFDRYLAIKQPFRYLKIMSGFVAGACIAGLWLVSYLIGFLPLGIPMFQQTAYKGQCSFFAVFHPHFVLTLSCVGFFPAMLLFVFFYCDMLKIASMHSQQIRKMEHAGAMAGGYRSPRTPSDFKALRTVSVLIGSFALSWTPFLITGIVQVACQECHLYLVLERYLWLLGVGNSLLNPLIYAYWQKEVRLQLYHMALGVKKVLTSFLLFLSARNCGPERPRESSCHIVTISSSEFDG
Experimental: Cells were harvested via centrifugation (3,000×g, 10 minutes), washed once on DPBS (minus Ca++/Mg++), resuspended in 0.25M sucrose, 25 mM HEPES, 0.5 mM EDTA, pH 7.4 and frozen at −80 degrees Celsius.
The frozen cells were thawed on ice and centrifuged at 700×g (1400 rpm) for 10 minutes at 4 degrees Celsius. The cell pellet was resuspended in 20 mL phosphate-buffered saline, and centrifuged at 1400 rpm for 10 minutes. […] Cells were then lysed with 15 gentle strokes of a tight-fitting glass Dounce homogenizer. The homogenate was centrifuged at 1000×g (2200 rpm) for 10 minutes at 4 degrees Celsius. The supernatant was transferred into fresh centrifuge tubes on ice. The cell pellet was resuspended in homogenization buffer, and centrifuged again at 1000×g (2200 rpm) for 10 minutes at 4 degrees Celsius after which the supernatant was removed and the pellet resuspended in homogenization buffer. […] The solution was then centrifuged at 25,000×g (15000 rpm) for 20 minutes at 4 degrees Celsius, the supernatant was discarded, and the pellet was resuspended in fresh homogenization buffer (minus Benzonase and MgCl2). After repeating the 25,000×g centrifugation step, the final membrane pellet was resuspended in homogenization buffer and frozen at −80 degrees Celsius.
2 microL of each dilution was added to appropriate wells of a 96-well plate (each concentration in triplicate).
Membranes expressing GPR119 were thawed and diluted to a final concentration of 20 μg/100 microL per well in Binding Buffer, and 100 microL of diluted membranes were added to each well of 96-well plate.
The plate was incubated for 60 minutes w/shaking at room temperature (approximately 25 degrees Celsius). […] Filters were then washed six times using washing buffer (50 mM Tris-HCl, pH 7.5 kept at 4 degrees Celsius). The filter plates were then air-dyed at room temperature overnight.
IC50 determinations were made from competition curves, analyzed with a proprietary curve fitting program (SIGHTS) and a 4-parameter logistic dose response equation. Ki values were calculated from IC50 values, using the Cheng-Prusoff equation.

human GPR119 [3] = biological target: T2, human GPR119; assay: cAMP HTRF functional assay (hGPR119 HEK-CRE beta-lactamase cells); type: cell-based; details: for Emax: read-out: Intrinsic Activity* (cAMP)
Experimental: GPR119 agonist activity was also determined with a cell-based assay utilizing an HTRF (Homogeneous Time-Resolved Fluorescence) cAMP detection kit (cAMP dynamic 2 Assay Kit; Cis Bio cat #62AM4PEC) that measures cAMP levels in the cell. The method is a competitive immunoassay between native cAMP produced by the cells and the cAMP labeled with the dye d2. The tracer binding is visualized by a Mab anti-cAMP labeled with Cryptate. The specific signal (i.e. energy transfer) is inversely proportional to the concentration of cAMP in either standard or sample.
Following 30 minutes incubation at room temperature, 5 microL of labeled d2 cAMP and 5 microL of anti-cAMP antibody (both diluted 1:20 in cell lysis buffer; as described in the manufacturers assay protocol) were added to each well of the assay plate. […] Raw data were converted to nM cAMP by interpolation from a cAMP standard curve (as described in the manufacturer's assay protocol) and EC50 determinations were made from an agonist-response curves analyzed with a curve fitting program using a 4-parameter logistic dose response equation.

human GPR119 [4] = biological target: T2, human GPR119; assay: beta-lactamase reporter functional assay (hGPR119 HEK293-CRE beta-lactamase cells); type: cell-based; details: for EC50: read-out: Human B-lactamase Functional EC50; for Emax: read-out: Intrinsic Activity* (B-lactamase)
Experimental: The assay for GPR119 agonists utilizes a cell-based (hGPR119 HEK293-CRE beta-lactamase) reporter construct where agonist activation of human GPR119 is coupled to beta-lactamase production via a cyclic AMP response element (CRE). GPR119 activity is then measured utilizing a FRET-enabled beta-lactamase substrate, CCF4-AM (Live Blazer FRET-B/G Loading kit, Invitrogen cat #K1027). […] After 4 hours the plating medium was removed and replaced with 40 microL of assay medium (Assay medium is plating medium without potassium clavulanate and HIFBS). Varying concentrations of each compound to be tested was then added in a volume of 10 microL (final DMSO≦0.5%) and the cells were incubated for 16 hours at 37 degrees Celsius in a humidified environment containing 5% carbon dioxide. Plates were removed from the incubator and allowed to equilibrate to room temperature for approximately 15 minutes. 10 microL of 6×CCF4/AM working dye solution (prepared according to instructions in the Live Blazer FRET-B/G Loading kit, Invitrogen cat #K1027) was added per well and incubated at room temperature for 2 hours in the dark. Fluorescence was measured on an EnVision fluorimetric plate reader, excitation 405 nm, emission 460 nm/535 nm. EC50 determinations were made from agonist-response curves analyzed with a curve fitting program using a 4-parameter logistic dose-response equation.

[5] = U2OS hGPR119 beta-arrestin cells, one value per run
[6] = percent of maximal activity relative to standard GPR119 agonist (WO2005121121) at 10 microM, one value per run
[7] = hGPR119 HEK-CRE beta-lactamase cells, HTRF cAMP, one value per run
[8] = percent of maximal activity relative to standard GPR119 agonist (WO2005121121) at 10 μM, one value per run
[9] = hGPR119 HEK293-CRE beta-lactamase cells, one value per run
[10] = **curve was extrapolated to 100% to calculate an EC50

SMILES: CC1(OC(=O)N2CCC(n3ncc(COc4c(F)ccc(F)c4F)c3C#N)CC2)CC1 [Example 31, 1-Methylcyclopropyl 4-{5-cyano-4-[(2,3,6-trifluorophenoxy)methyl]-1H-pyrazol-1-yl}piperidine-1-carboxylate]
- EC50 (human GPR119 [1]; [5]): 155 nM
- Emax (human GPR119 [1]; [6]): 92%
- Ki (human GPR119 [2]): 462 nM
- EC50 (human GPR119 [3]; [7]): 56 nM and 52 nM
- Intrinsic Activity* (cAMP) (human GPR119 [3]; [8]): 109%
- Emax (human GPR119 [3]; [8]): 107%

SMILES: CC(C)OC(=O)N1CCC(n2ncc(COc3ccc(C#N)cc3F)c2C#N)CC1 [Example 8, Isopropyl 4-{5-cyano-4-[(4-cyano-2-fluorophenoxy)methyl]-1H-pyrazol-1-yl}piperidine-1-carboxylate]
- EC50 (human GPR119 [1]; [5]): 16 nM
- Emax (human GPR119 [1]; [6]): 80%
- EC50 (human GPR119 [3]; [7]): 9 nM and 6 nM and 7 nM
- Intrinsic Activity* (cAMP) (human GPR119 [3]; [8]): 75% and 74%
- Emax (human GPR119 [3]; [8]): 89%
- EC50 (human GPR119 [4]; [9]): 20 nM and 39 nM and 64 nM
- Intrinsic Activity* (B-lactamase) (human GPR119 [4]; [6]): 102% and 94%
- Emax (human GPR119 [4]; [6]): 100%

SMILES: CC(C)OC(=O)N1CCC(n2ncc(COc3ccc(-c4nccn4C)cc3F)c2C#N)CC1 [Example 33, Isopropyl 4-(5-cyano-4-{[2-fluoro-4-(1-methyl-1H-imidazol-2-yl)phenoxy]methyl}-1H-pyrazol-1-yl)piperidine-1-carboxylate]
- EC50 (human GPR119 [1]; [10]): 1330 nM
- Emax (human GPR119 [1]; [10]): 100%
- EC50 (human GPR119 [3]; [7]): 244 nM and 274 nM
- Intrinsic Activity* (cAMP) (human GPR119 [3]; [8]): 92%
- Emax (human GPR119 [3]; [8]): 85%

SMILES: CC1(OC(=O)N2CCC(n3ncc(COc4ccc(C(N)=O)cc4)c3C#N)CC2)CC1 [Example 16, 1-Methylcyclopropyl 4-{4-[(4-carbamoylphenoxy)methyl]-5-cyano-1H-pyrazol-1-yl}piperidine-1-carboxylate]
- EC50 (human GPR119 [1]; [10]): 420 nM
- EC50 (human GPR119 [1]; [5]): 472 nM
- Emax (human GPR119 [1]; [10]): 100%
- EC50 (human GPR119 [3]; [7]): 204 nM and 165 nM and 316 nM
- Intrinsic Activity* (cAMP) (human GPR119 [3]; [8]): 102% and 119%
- Emax (human GPR119 [3]; [8]): 105%

SMILES: CC1(OC(=O)N2CCC(n3ncc(COc4ccc(C(N)=O)cc4F)c3C#N)CC2)CC1 [Example 15, 1-Methylcyclopropyl 4-{4-[(4-carbamoyl-2-fluorophenoxy)methyl]-5-cyano-1H-pyrazol-1-yl}piperidine-1-carboxylate]
- EC50 (human GPR119 [1]; [5]): 63 nM
- Emax (human GPR119 [1]; [6]): 104%
- Ki (human GPR119 [2]): 268 nM and 160 nM
- EC50 (human GPR119 [3]; [7]): 198 nM and 106 nM and 129 nM
- Intrinsic Activity* (cAMP) (human GPR119 [3]; [8]): 102% and 112% and 131%

SMILES: CC1(OC(=O)N2CCC(n3ncc(COc4cc(F)ccc4F)c3C#N)CC2)CC1 [Example 13, 1-Methylcyclopropyl 4-{5-cyano-4-[(2,5-difluorophenoxy)methyl]-1H-pyrazol-1-yl}piperidine-1-carboxylate]
- EC50 (human GPR119 [1]; [5]): 217 nM
- Emax (human GPR119 [1]; [6]): 119%
- Ki (human GPR119 [2]): 149 nM
- EC50 (human GPR119 [3]; [7]): 180 nM and 112 nM
- Intrinsic Activity* (cAMP) (human GPR119 [3]; [8]): 87%
- Emax (human GPR119 [3]; [8]): 95%

SMILES: CC1(OC(=O)N2CCC(n3ncc(COc4ccc(C#N)cc4)c3C#N)CC2)CC1 [Example 17, 1-Methylcyclopropyl 4-(5-cyano-4-((4-cyanophenoxy)methyl)-1H-pyrazol-1-yl)piperidine-1-carboxylate]
- EC50 (human GPR119 [1]; [5]): 161 nM
- Emax (human GPR119 [1]; [6]): 67%
- EC50 (human GPR119 [3]; [7]): 39 nM and 26 nM
- Intrinsic Activity* (cAMP) (human GPR119 [3]; [8]): 91%
- Emax (human GPR119 [3]; [8]): 95%

SMILES: CC1(OC(=O)N2CCC(n3ncc(COc4cccc(F)c4F)c3C#N)CC2)CC1 [Example 14, 1-Methylcyclopropyl 4-{5-cyano-4-[(2,3-difluorophenoxy)methyl]-1H-pyrazol-1-yl}piperidine-1-carboxylate]
- EC50 (human GPR119 [1]; [5]): 495 nM
- Emax (human GPR119 [1]; [6]): 109%
- Ki (human GPR119 [2]): 723 nM
- EC50 (human GPR119 [3]; [7]): 436 nM and 494 nM
- Intrinsic Activity* (cAMP) (human GPR119 [3]; [8]): 78%
- Emax (human GPR119 [3]; [8]): 74%

SMILES: CC(C)OC(=O)N1CCC(n2ncc(COc3ccc(-n4cnnn4)cc3F)c2C#N)CC1 [Example 3, Isopropyl 4-(5-cyano-4-{[2-fluoro-4-(1H-tetrazol-1-yl)phenoxy]-methyl}-1H-pyrazol-1-yl)piperidine-1-carboxylate]
- EC50 (human GPR119 [1]; [5]): 4 nM
- Emax (human GPR119 [1]; [6]): 111%
- Ki (human GPR119 [2]): 5 nM and 10 nM and 37 nM
- Intrinsic Activity* (cAMP) (human GPR119 [3]; [8]): 91% and 74% and 79% and 84%
- Emax (human GPR119 [3]; [8]): 86%
- EC50 (human GPR119 [4]; [9]): 8 nM and 11 nM and 6 nM
- Intrinsic Activity* (B-lactamase) (human GPR119 [4]; [6]): 105% and 96%
- Emax (human GPR119 [4]; [6]): 98%

SMILES: CC(C)OC(=O)N1CCC(n2ncc(COc3ccc(-c4nnn[nH]4)cc3F)c2C#N)CC1 [Example 19, Isopropyl 4-(5-cyano-4-((2-fluoro-4-(1H-tetrazol-5-yl)phenoxy)methyl)-1H-pyrazol-1-yl)piperidine-1-carboxylate and Isopropyl 4-(5-cyano-4-((2-fluoro-4-(2H-tetrazol-5-yl)phenoxy)methyl)-1H-pyrazol-1-yl)piperidine-1-carboxylate]
- Ki (human GPR119 [2]): > 6100 nM
- EC50 (human GPR119 [3]; [10]): 4480 nM
- Emax (human GPR119 [3]; [10]): 100%
- EC50 (human GPR119 [3]; [7]): 4550 nM
- Emax (human GPR119 [3]; [8]): 99%
- EC50 (human GPR119 [4]; [10]): 4000 nM and 4810 nM
- Emax (human GPR119 [4]; [10]): 100%
